# Reference: patent US20080004274A1, “Novel biaromatic compounds that modulate PPAR type receptors and cosmetic/pharmaceutical compositions comprised thereof” (GALDERMA RESEARCH & DEVELOPMENT, priority 2004, published 2008)
# Assays:
# Assay type in all cases: cell-based
# PPARδ = biological target: T1, PPARδ (Homo sapiens, UniProt Q03181); assay: Cross-curve PPAR transactivation test, PPARδ; conditions: HeLN cells, stable transfectants ERE-βGlob-Luc-SV-Neo and Gal-hPPARδ; luciferase; cross curves against reference agonist, Schild regression; n.a. means not active; read-out: PPARs delta Kd app
# T1 construct: the reporter is ERE-βGlob-Luc
# T1 sequence (Q03181 171-441 limits assumed): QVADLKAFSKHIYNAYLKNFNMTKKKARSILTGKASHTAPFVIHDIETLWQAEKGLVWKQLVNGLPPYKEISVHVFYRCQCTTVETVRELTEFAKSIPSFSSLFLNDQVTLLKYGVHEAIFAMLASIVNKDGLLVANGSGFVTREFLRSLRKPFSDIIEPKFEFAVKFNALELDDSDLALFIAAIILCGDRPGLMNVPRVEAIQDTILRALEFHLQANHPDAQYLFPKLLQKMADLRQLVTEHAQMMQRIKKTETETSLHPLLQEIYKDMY
# Procedure: (§1) The activation of the receptors with an agonist (activator) in HeLN cells leads to the expression of a reporter gene, luciferase, which, in the presence of a substrate, generates light. The modulation of the receptors is measured by quantifying the luminescence produced after incubating the cells in the presence of a reference agonist. The ligands displace the agonist from its site. The measurement of the activity is performed by quantifying the light produced. This measurement makes it possible to determine the modulatory activity of the compounds according to the invention by determining the constant that is the affinity of the molecule for the receptor. Since this value can fluctuate depending on the basal activity and the expression of the receptor, it is referred to as Kd apparent (KdApp in nM).
# (§2) To determine this constant, “cross curves” of the test product against a reference agonist are produced in a 96-well plate: 10 concentrations of the test product plus a concentration 0 are arranged in a line, and 7 concentrations of the agonist plus a concentration 0 are arranged in a column. This is 88 measurement points for 1 product and 1 receptor. The remaining 8 wells are used for repeatability controls.
# (§3) Measurements are also taken for total agonist controls with the same products.
# (§4) The HeLN cell lines used are stable transfectants containing the plasmids ERE-βGlob-Luc-SV-Neo (reporter gene) and PPAR (α, δ, γ) Gal-hPPAR. These cells are inoculated into 96-well plates at a rate of 10 000 cells per well in 100 μl of DMEM medium without phenol red and supplemented with 10% of defatted calf serum. The plates are then incubated at 37° C. and 7% CO2 for 16 hours.
# (§5) The various dilutions of the test products and of the reference ligand are added at a rate of 5 μl per well. The plates are then incubated for 18 hours at 37° C. and 7% CO2. The culture medium is removed by turning over and 100 μl of a 1:1 PBS/luciferin mixture are added to each well. After 5 minutes, the plates are read by the luminescence detector.
# PPARα = biological target: T2, PPARα (Homo sapiens, UniProt Q07869); assay: Cross-curve PPAR transactivation test, PPARα; conditions: HeLN cells, stable transfectants ERE-βGlob-Luc-SV-Neo and Gal-hPPARα; luciferase; cross curves against reference agonist, Schild regression; n.a. means not active; read-out: PPAR alpha Kd app
# T2 construct: the reporter is ERE-βGlob-Luc
# T2 sequence (Q07869 200-468 limits assumed): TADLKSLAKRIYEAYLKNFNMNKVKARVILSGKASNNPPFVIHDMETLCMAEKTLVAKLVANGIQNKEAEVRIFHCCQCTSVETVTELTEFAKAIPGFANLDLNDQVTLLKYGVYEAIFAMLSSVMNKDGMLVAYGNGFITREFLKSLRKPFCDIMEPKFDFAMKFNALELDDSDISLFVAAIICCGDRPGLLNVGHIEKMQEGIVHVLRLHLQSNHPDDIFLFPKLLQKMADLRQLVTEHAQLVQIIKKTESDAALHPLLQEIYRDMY
# Procedure: as §1, §2, §3, §4, §5
# PPARγ = biological target: T3, PPARγ (Homo sapiens, UniProt P37231); assay: Cross-curve PPAR transactivation test, PPARγ; conditions: HeLN cells, stable transfectants ERE-βGlob-Luc-SV-Neo and Gal-hPPARγ; luciferase; cross curves against reference agonist, Schild regression; n.a. means not active; read-out: PPAR gamma Kd app
# T3 construct: the reporter is ERE-βGlob-Luc
# T3 sequence (P37231 238-505 limits assumed): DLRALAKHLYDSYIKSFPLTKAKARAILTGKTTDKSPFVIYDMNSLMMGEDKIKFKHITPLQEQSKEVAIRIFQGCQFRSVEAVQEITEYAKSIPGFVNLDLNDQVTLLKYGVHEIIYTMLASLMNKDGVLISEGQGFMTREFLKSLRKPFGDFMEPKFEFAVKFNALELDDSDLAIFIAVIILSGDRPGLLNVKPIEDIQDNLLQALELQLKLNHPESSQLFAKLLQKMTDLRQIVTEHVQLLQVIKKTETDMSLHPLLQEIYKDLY
# Procedure: as §1, §2, §3, §4, §5
Kd (PPARδ) [µM],Kd (PPARα) [µM],Kd (PPARγ) [µM],Structure (SMILES)
0.06,2,1,"CCCCCCCN1C(=O)C(=NNC(=O)Nc2ccccc2Cl)c2cc(SCCc3ccc(C(=O)O)cc3)ccc21 [Example 22, 4-{2-[3((2-chloroanilinocarbonyl)hydrazono)-2-oxo-1-heptyl-2,3-dihydro-1H-indol-5-ylsulfanyl]ethyl}benzoic acid]"
4,2,0.5,"O=C(N/N=C1\C(=O)N(CCc2ccccc2)c2ccc(SCCc3ccc(C(=O)O)cc3)cc21)Nc1ccccc1 [Example 16, 4-{2-[3-((anilinocarbonyl)hydrazono)-2-oxo-1-phenethyl-2,3-dihydro-1H-indol-5-ylsulfanyl]ethyl}benzoic acid]"
0.5,8,0.25,"O=C(N/N=C1/C(=O)N(CCc2ccccc2)c2ccc(SCCc3ccc(C(=O)O)cc3)cc21)Nc1ccc(C(F)(F)F)cc1Cl [Example 35, 4-{2-[3((2-chloro-4-trifluoromethylanilinocarbonyl)hydrazono)-2-oxo-1-phenethyl-2,3-dihydro-1H-indol-5-ylsulfanyl]ethyl}benzoic acid]"
0.5,,4,"CCCCCCN1C(=O)/C(=N/NC(=O)Nc2ccccc2)c2cc(SCCCc3ccc(C(=O)O)cc3)ccc21 [Example 62, 4-[3-(3-((anilinocarbonyl)hydrazono)-2-oxo-1-hexyl-2,3-dihydro-1H-indol-5-ylsulfanyl)propyl]benzoic acid]"
,0.25,1,"COC(=O)c1ccc(CCSc2ccc3c(c2)/C(=N\NC(=O)Nc2cccc(F)c2)C(=O)N3CCc2ccccc2)cc1 [Example 17, methyl 4-{2-[3-((3-fluoroanilinocarbonyl)hydrazono)-2-oxo-1-phenethyl-2,3-dihydro-1H-indol-5-ylsulfanyl]ethyl}benzoate]"
0.5,2,1,"CCCCCCCN1C(=O)/C(=N\NC(=O)Nc2cccc(C(F)(F)F)c2)c2cc(SCCc3ccc(C(=O)O)cc3)ccc21 [Example 20, 4-{2-[3-((3-trifluoromethylanilinocarbonyl)hydrazono)-2-oxo-1-heptyl-2,3-dihydro-1H-indol-5-ylsulfanyl]ethyl}benzoic acid]"
0.25,2,0.5,"CCCCN1C(=O)/C(=N\NC(=O)Nc2cccc(F)c2)c2cc(SCCc3ccc(C(=O)O)cc3)ccc21 [Example 18, 4-{2-[3-((3-fluoroanilinocarbonyl)hydrazono)-2-oxo-1-butyl-2,3-dihydro-1H-indol-5-ylsulfanyl]ethyl}benzoic acid]"
0.12,2,1,"CCCCN1C(=O)/C(=N/NC(=O)Nc2ccccc2)c2cc(SCCc3ccc(C(=O)O)cc3)ccc21 [Example 14, 4-{2-[3-((anilinocarbonyl)hydrazono)-2-oxo-1-butyl-2,3-dihydro-1H-indol-5-ylsulfanyl]ethyl}benzoic acid]"
0.03,0.5,1,"CCCCCCCN1C(=O)/C(=N\NC(=O)Nc2ccccc2Cl)c2cc(SCCc3ccc(C(=O)O)cc3)ccc21 [Example 84, 4-{2-[3-((2-chloroanilino)carbonylhydrazono)-2-oxo-1-heptyl-2,3-dihydro-1H-indol-5-ylsulfanyl]ethyl}benzoic acid]"
0.25,4,4,"CCCCCCN1C(=O)/C(=N/NC(=O)Nc2ccc(F)cc2)c2cc(SCCCc3ccc(C(=O)O)cc3)ccc21 [Example 74, 4-[3-(3-((4-fluoroanilinocarbonyl)hydrazono)-2-oxo-1-hexyl-2,3-dihydro-1H-indol-5-ylsulfanyl)propyl]benzoic acid]"
